Data from ChEMBL document CHEMBL1201862, “PubChem BioAssay data set” (2004).
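The compound was tested at five concentrations on cells cultured in 96-well plates, with a 48-hour exposure period. At the GI50, growth is halved.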 Active and inactive are the calls of the source. No stated cut-off is given here; in the data, active = GI50 up to about 1.1 µM and inactive = higher.

Tests used:
Assay in all cases: DTP human tumour cell line panel, 48 h
TK-10 = system: TK-10
COLO 205 = system: COLO 205
OVCAR-8 = system: OVCAR-8
U-251 = system: U-251
SF-539 = system: SF-539
KM12 = system: KM12
M19-MEL = system: M19-MEL
NCI-H23 = system: NCI-H23
NCI-H226 = system: NCI-H226
RPMI-8226 = system: RPMI-8226
OVCAR-4 = system: OVCAR-4
SK-MEL-5 = system: SK-MEL-5
UACC-62 = system: UACC-62
HL-60 = system: HL-60
DMS-114 = system: DMS-114
EKVX = system: EKVX
HOP-92 = system: HOP-92
SF-268 = system: SF-268
UO-31 = system: UO-31
CAKI-1 = system: CAKI-1

COC(=O)C1C(C)N1C (configuration not stated)
GI50 (TK-10): > 100 µM (inactive) | GI50 (COLO 205): > 100 µM (inactive) | GI50 (OVCAR-8): > 100 µM (inactive) | GI50 (U-251): > 100 µM (inactive) | GI50 (SF-539): > 100 µM (inactive) | GI50 (KM12): > 100 µM (inactive) | GI50 (M19-MEL): > 100 µM (inactive) | GI50 (NCI-H23): > 100 µM (inactive) | GI50 (NCI-H226): > 100 µM (inactive) | GI50 (RPMI-8226): > 100 µM (inactive) | GI50 (OVCAR-4): > 100 µM (inactive) | GI50 (SK-MEL-5): > 100 µM (inactive) | GI50 (UACC-62): > 100 µM (inactive) | GI50 (HL-60): > 100 µM (inactive) | GI50 (DMS-114): > 100 µM (inactive) | GI50 (EKVX): > 100 µM (inactive) | GI50 (HOP-92): > 100 µM (inactive)

CCC(C(=O)O)c1ccc(OC)cc1 (configuration not stated)
GI50 (SF-268): > 100 µM (inactive) | GI50 (TK-10): > 100 µM (inactive) | GI50 (COLO 205): > 100 µM (inactive) | GI50 (U-251): > 100 µM (inactive) | GI50 (SF-539): > 100 µM (inactive) | GI50 (KM12): > 100 µM (inactive) | GI50 (M19-MEL): > 100 µM (inactive) | GI50 (NCI-H23): > 100 µM (inactive) | GI50 (NCI-H226): > 100 µM (inactive) | GI50 (RPMI-8226): > 100 µM (inactive) | GI50 (UO-31): > 100 µM (inactive) | GI50 (OVCAR-4): > 100 µM (inactive) | GI50 (CAKI-1): > 100 µM (inactive) | GI50 (SK-MEL-5): > 100 µM (inactive) | GI50 (UACC-62): > 100 µM (inactive) | GI50 (HL-60): > 100 µM (inactive) | GI50 (DMS-114): > 100 µM (inactive) | GI50 (EKVX): > 100 µM (inactive) | GI50 (HOP-92): > 100 µM (inactive)

O=c1ccn(COC(COCc2ccccc2)COCc2ccccc2)c(=O)[nH]1
GI50 (TK-10): > 100 µM (inactive) | GI50 (COLO 205): > 100 µM (inactive) | GI50 (OVCAR-8): > 100 µM (inactive) | GI50 (U-251): > 100 µM (inactive) | GI50 (KM12): > 100 µM (inactive) | GI50 (NCI-H23): > 100 µM (inactive) | GI50 (NCI-H226): > 100 µM (inactive) | GI50 (RPMI-8226): > 100 µM (inactive) | GI50 (UO-31): 51.4 µM (inactive) | GI50 (OVCAR-4): > 100 µM (inactive) | GI50 (CAKI-1): > 100 µM (inactive) | GI50 (SK-MEL-5): 76.4 µM (inactive) | GI50 (UACC-62): 86.9 µM (inactive) | GI50 (HL-60): 85.7 µM (inactive) | GI50 (HOP-92): > 100 µM (inactive)

O=C(O)C1CCCCN1c1ccccc1[N+](=O)[O-] (configuration not stated)
GI50 (SF-268): > 100 µM (inactive) | GI50 (TK-10): > 100 µM (inactive) | GI50 (OVCAR-8): > 100 µM (inactive) | GI50 (U-251): > 100 µM (inactive) | GI50 (SF-539): > 100 µM (inactive) | GI50 (M19-MEL): > 100 µM (inactive) | GI50 (NCI-H23): > 100 µM (inactive) | GI50 (NCI-H226): > 100 µM (inactive) | GI50 (RPMI-8226): > 100 µM (inactive) | GI50 (UO-31): > 100 µM (inactive) | GI50 (OVCAR-4): > 100 µM (inactive) | GI50 (CAKI-1): > 100 µM (inactive) | GI50 (SK-MEL-5): > 100 µM (inactive) | GI50 (UACC-62): > 100 µM (inactive) | GI50 (HL-60): > 100 µM (inactive) | GI50 (DMS-114): > 100 µM (inactive) | GI50 (EKVX): > 100 µM (inactive) | GI50 (HOP-92): > 100 µM (inactive)

O=C(/C=N/c1ccccc1S)c1ccco1
GI50 (SF-268): 18.7 µM (inactive) | GI50 (TK-10): 19.1 µM (inactive) | GI50 (COLO 205): 17.2 µM (inactive) | GI50 (OVCAR-8): 11.5 µM (inactive) | GI50 (U-251): 5.53 µM (inactive) | GI50 (SF-539): 14.1 µM (inactive) | GI50 (KM12): 16.3 µM (inactive) | GI50 (M19-MEL): 12.2 µM (inactive) | GI50 (NCI-H23): 4.01 µM (inactive) | GI50 (RPMI-8226): 14.8 µM (inactive) | GI50 (UO-31): 1.86 µM (inactive) | GI50 (OVCAR-4): 13.4 µM (inactive) | GI50 (CAKI-1): 19.6 µM (inactive) | GI50 (SK-MEL-5): 17.3 µM (inactive) | GI50 (UACC-62): 15.5 µM (inactive) | GI50 (HL-60): 4.17 µM (inactive) | GI50 (DMS-114): 15.3 µM (inactive) | GI50 (EKVX): 10.7 µM (inactive)

O=c1[nH]c(-c2ccc(Cl)cc2)cc2ccsc12
GI50 (SF-268): 9.23 µM (inactive) | GI50 (TK-10): 2.82 µM (inactive) | GI50 (COLO 205): 9.82 µM (inactive) | GI50 (OVCAR-8): 8.41 µM (inactive) | GI50 (U-251): 3.14 µM (inactive) | GI50 (KM12): 3.21 µM (inactive) | GI50 (NCI-H23): 4.92 µM (inactive) | GI50 (NCI-H226): > 100 µM (inactive) | GI50 (RPMI-8226): 3.1 µM (inactive) | GI50 (UO-31): 5.94 µM (inactive) | GI50 (OVCAR-4): 23.3 µM (inactive) | GI50 (CAKI-1): 2.52 µM (inactive) | GI50 (SK-MEL-5): 4.41 µM (inactive) | GI50 (UACC-62): 8.22 µM (inactive) | GI50 (HL-60): 2.94 µM (inactive) | GI50 (EKVX): 8.38 µM (inactive) | GI50 (HOP-92): 10.6 µM (inactive)

O=C=C=P(c1ccccc1)(c1ccccc1)c1ccccc1
GI50 (SF-268): 69.2 µM (inactive) | GI50 (TK-10): 3.46 µM (inactive) | GI50 (COLO 205): 23.7 µM (inactive) | GI50 (OVCAR-8): 72.6 µM (inactive) | GI50 (U-251): 72.1 µM (inactive) | GI50 (SF-539): > 100 µM (inactive) | GI50 (KM12): 48.9 µM (inactive) | GI50 (M19-MEL): 27.1 µM (inactive) | GI50 (NCI-H23): 31.3 µM (inactive) | GI50 (NCI-H226): 45.6 µM (inactive) | GI50 (RPMI-8226): 27.3 µM (inactive) | GI50 (UO-31): > 100 µM (inactive) | GI50 (OVCAR-4): 61.2 µM (inactive) | GI50 (CAKI-1): 59.4 µM (inactive) | GI50 (SK-MEL-5): 21.5 µM (inactive) | GI50 (HL-60): 11.1 µM (inactive) | GI50 (DMS-114): 22.8 µM (inactive) | GI50 (EKVX): 46.7 µM (inactive) | GI50 (HOP-92): 16.1 µM (inactive)

OC[C@H]1O[C@@H](n2cnc3cncnc32)[C@H](O)[C@@H]1O [NEBULARINE]
GI50 (SF-268): 1.09 µM (active) | GI50 (COLO 205): 0.417 µM (active) | GI50 (OVCAR-8): 1.17 µM (inactive) | GI50 (U-251): 1.63 µM (inactive) | GI50 (SF-539): 1.43 µM (inactive) | GI50 (KM12): 1.01 µM (active) | GI50 (M19-MEL): 3.27 µM (inactive) | GI50 (NCI-H23): 1.75 µM (inactive) | GI50 (NCI-H226): 1.34 µM (inactive) | GI50 (RPMI-8226): 0.714 µM (active) | GI50 (UO-31): 1.28 µM (inactive) | GI50 (OVCAR-4): 1.12 µM (inactive) | GI50 (CAKI-1): 0.423 µM (active) | GI50 (SK-MEL-5): 1.67 µM (inactive) | GI50 (UACC-62): 1.16 µM (inactive) | GI50 (HL-60): 0.326 µM (active) | GI50 (DMS-114): 1.21 µM (inactive) | GI50 (EKVX): 0.605 µM (active) | GI50 (HOP-92): 0.656 µM (active)
